This is an account of results in patent US20040002506A1, “Novel class of cytodifferentiating agents and histone deacetylase inhibitors, and methods of use thereof” (Sloan Kettering Institute for Cancer Research, priority 1999, published 2004).

The test concerns Murine erythroleukemia (MEL) cells. The test can be described thus: MEL cell differentiation assay (benzidine assay, 5-day culture). It is filed as cell-based. As to conditions: Table 2, "No inh" = words. Here is the method: Murine erythroleukemia (MEL) cell differentiation. The MEL cell differentiation assay was used to assess the ability of Compound 1 to induce terminal differentiation. MEL cells (logarithmically dividing) were cultured with the indicated concentrations of Compound 1. Following a 5-day culture period, cell growth was determined using a Coulter Counter and differentiation was determined microscopically using the benzidine assay to determine hemoglobin protein accumulation on a per cell basis.
The MEL cell differentiation assay was used to assess the ability of Compound 2 to induce terminal differentiation. MEL cells (logarithmically dividing) were cultured with the indicated concentrations of Compound 2. Following a 5-day culture period differentiation was determined microscopically using the benzidine assay to determine hemoglobin protein accumulation on a per cell basis.
The MEL cell differentiation assay was used to assess the ability of Compound 3 to induce terminal differentiation. MEL cells (logarithmically dividing) were cultured with the indicated concentrations of Compound 3. Following a 5-day culture period differentiation was determined microscopically using the benzidine assay to determine hemoglobin protein accumulation on a per cell basis.
The MEL cell differentiation assay was used to assess the ability of Compound 4 to induce terminal differentiation. MEL cells (logarithmically dividing) were cultured with the indicated concentrations of Compound 4. Following a 5-day culture period differentiation was determined microscopically using the benzidine assay to determine hemoglobin protein accumulaiton on a per cell basis.
All the compounds which were prepared were tested. […] Table 2 is compiled from experiments similar to the experiments described in Examples 7-10 above.
As to `O=C(CCCCCC(C(=O)Nc1ccc2ncccc2c1)C(=O)Nc1ccc2ncccc2c1)NO` [Structure 692], the “MEL cell growth (cell count)” value was determined as 18.0 cells/ml × 10^−5.
Under `O=C(/C=C/c1cccc(C(C(=O)Nc2cccc3cccnc23)C(=O)Nc2cccc3cccnc23)c1)NO` [Structure 690] stands 2.5 cells/ml × 10^−5; under `O=C(/C=C/c1cccc(CC(=O)Nc2ccccc2)c1)NO` [Structure 689], 2.0 cells/ml × 10^−5.
